Data set [1] concerns Triticum aestivum (spring wheat). Nature of the data set: Postemergence herbicidal activity, visual % control. It counts as in vivo. The note with it: post-emergence, 336 h, post-emergent, after 14 days, 0 = no injury, 100 = complete kill, read-out: % Control TRZAS; for plant injury at 280 g/ha: 280 g ai/ha; for plant injury at 140 g/ha: 140 g ai/ha. The method, then: (§1) Seeds or nutlets of the desired test plant species were planted in Sun Gro MetroMix® 306 planting mixture, which typically has a pH of 6.0 to 6.8 and an organic matter content of about 30 percent, in plastic pots with a surface area of 64 square centimeters. When required to ensure good germination and healthy plants, a fungicide treatment and/or other chemical or physical treatment was applied. The plants were grown for 7-21 days in a greenhouse with an approximate 15 hour photoperiod which was maintained at about 23-29° C. during the day and 22-28° C. during the night. Nutrients and water were added on a regular basis and supplemental lighting was provided with overhead metal halide 1000-Watt lamps as necessary. The plants were employed for testing when they reached the first or second true leaf stage.
(§2) A weighed amount, determined by the highest rate to be tested, of each test compound was placed in a 25 mL glass vial and was dissolved in 4 mL of a 97:3 v/v (volume/volume) mixture of acetone and dimethyl sulfoxide (DMSO) to obtain concentrated stock solutions. […] The concentrated stock solutions obtained were diluted with 20 mL of an aqueous mixture containing acetone, water, isopropyl alcohol, DMSO, Atplus 411F crop oil concentrate, and Triton® X-155 surfactant in a 48.5:39:10:1.5:1.0:0.02 v/v ratio to obtain spray solutions containing the highest application rates. Additional application rates were obtained by serial dilution of 12 mL of the high rate solution into a solution containing 2 mL of 97:3 (v/v) mixture of acetone and dimethyl sulfoxide (DMSO) and 10 mL of an aqueous mixture containing acetone, water, isopropyl alcohol, DMSO, Atplus 411F crop oil concentrate, and Triton X-155 surfactant in a 48.5:39:10:1.5:1.0:0.02 (v/v) ratio to obtain ½X, ¼X, ⅛X and 1/16X rates of the high rate. Compound requirements are based upon a 12 mL application volume at a rate of 187 L/ha. Formulated compounds were applied to the plant material with an overhead Mandel track sprayer equipped with a 8002E nozzles calibrated to deliver 187 L/ha over an application area of 0.503 square meters at a spray height of […] above the average plant canopy height. Control plants were sprayed in the same manner with the solvent blank.
(§3) The treated plants and control plants were placed in a greenhouse as described above and watered by sub-irrigation to prevent wash-off of the test compounds. After 14 days, the condition of the test plants as compared with that of the untreated plants was determined visually and scored on a scale of 0 to 100 percent where 0 corresponds to no injury and 100 corresponds to complete kill

Data set [2] concerns Amaranthus retroflexus (pigweed). The description is as above. It counts as in vivo. The conditions noted are these: post-emergence, 336 h, post-emergent, after 14 days, 0 = no injury, 100 = complete kill, read-out: % Control AMARE; for pest or weed control at 280 g/ha: 280 g ai/ha; for pest or weed control at 140 g/ha: 140 g ai/ha. The method, then:
as §1, §2, §3

Data set [3] relates to Cirsium arvense (canada thistle). Described as above. It counts as in vivo. The note with it: post-emergence, 336 h, post-emergent, after 14 days, 0 = no injury, 100 = complete kill, read-out: % Control CIRAR; for pest or weed control at 280 g/ha: 280 g ai/ha; for pest or weed control at 140 g/ha: 140 g ai/ha. The method, then:
as §1, §2, §3

For data set [4], the system named is Chenopodium album (lambsquarters). Described as above. It counts as in vivo. The note with it: post-emergence, 336 h, post-emergent, after 14 days, 0 = no injury, 100 = complete kill, read-out: % Control CHEAL; for pest or weed control at 280 g/ha: 280 g ai/ha; for pest or weed control at 140 g/ha: 140 g ai/ha. The method, then: as §1, §2, §3
In data set [5] the test system is Polygonum convolvulus (wild buckwheat). The description is as above. The note with it: Fallopia convolvulus, post-emergence, 336 h, post-emergent, after 14 days, 0 = no injury, 100 = complete kill, read-out: % Control POLCO; for pest or weed control at 280 g/ha: 280 g ai/ha; for pest or weed control at 140 g/ha: 140 g ai/ha. Type of data set: in vivo. The method, then: as §1, §2, §3

Structures are written as SMILES.

Broadly, the melting point is the temperature, or range, at which the solid turns liquid.

Compound `C=Cc1c(C(=O)OC)nc(Cl)c(Cl)c1N` [Compound 1, methyl 4-amino-5,6-dichloro-3-vinylpicolinate] returned a melting point of 96 to 97 °C. Further, in data set [1], the plant injury at 280 g/ha is 0%. For the same compound, the pest or weed control at 280 g/ha in data set [2] worked out at 100%. The pest or weed control at 280 g/ha in data set [3] was found to be 95%. In data set [4], the pest or weed control at 280 g/ha came to 100%. Moreover, the pest or weed control at 280 g/ha in data set [5] is 100%.
With `C=Cc1c(C(=O)OC)nc(Cl)c(F)c1N` [Compound 2, methyl 4-amino-6-chloro-5-fluoro-3-vinylpyridine-2-carboxylate], the melting point lay within 99 to 100 °C. In addition, the plant injury at 140 g/ha in data set [1] was 55%. The pest or weed control at 140 g/ha in data set [2] was determined as 100%. For the same compound, the pest or weed control at 140 g/ha in data set [3] amounted to 70%. In addition, in data set [4], the pest or weed control at 140 g/ha came to 90%.
Compound `C=Cc1c(N)cc(Cl)nc1C(=O)OC` [Compound 3, methyl 4-amino-6-chloro-3-vinylpicolinate] came in with a melting point of 53 to 54 °C. For the same compound, in data set [1], the plant injury at 280 g/ha came to 20%. The pest or weed control at 280 g/ha in data set [2] was 100%. In addition, the pest or weed control at 280 g/ha in data set [3] worked out at 100%. Moreover, the pest or weed control at 280 g/ha in data set [4] amounted to 100%. In addition, in data set [5], the pest or weed control at 280 g/ha was determined as 100%.
Regarding `C/C=C\c1c(C(=O)OC)nc(Cl)c(F)c1N` [Compound 4, (Z)-methyl 4-amino-6-chloro-5-fluoro-3-(prop-1-en-1-yl)picolinate], the plant injury at 140 g/ha in data set [1] was determined as 0%. For the same compound, the pest or weed control at 140 g/ha in data set [2] was 100%; in data set [3] it was 85%; in data set [4], 100%; in data set [5] it was 40%.
On to `C/C=C/c1c(C(=O)OC)nc(Cl)c(F)c1N` [Compound 5, (E)-methyl 4-amino-6-chloro-5-fluoro-3-(prop-1-en-1-yl)picolinate], for which the melting point lay in the range of 107 to 109 °C. Further, the plant injury at 140 g/ha in data set [1] turned out to be 0%. For the same compound, the pest or weed control at 140 g/ha in data set [2] came to 0%. Further, the pest or weed control at 140 g/ha in data set [3] was found to be 65%. In addition, the pest or weed control at 140 g/ha in data set [4] amounted to 90%. In data set [5], the pest or weed control at 140 g/ha was 20%.
`C=C(F)c1c(C(=O)OC)nc(Cl)c(F)c1N` [Compound 6, methyl 4-amino-6-chloro-5-fluoro-3-(1-fluorovinyl)picolinate] came in with a melting point of 98 to 100 °C. Also, the plant injury at 140 g/ha in data set [1] came to 0%. Moreover, in data set [2], the pest or weed control at 140 g/ha was 20%. Further, in data set [3], the pest or weed control at 140 g/ha came out at 75%. The pest or weed control at 140 g/ha in data set [4] came to 90%. In addition, in data set [5], the pest or weed control at 140 g/ha was 90%.
On to `COC(=O)c1nc(Cl)c(F)c(N)c1/C=C/[Si](C)(C)C` [Compound 7, (E)-methyl 4-amino-6-chloro-5-fluoro-3-(2-(trimethylsilyl)vinyl)picolinate], for which the melting point was in the range of 103 to 105 °C. Besides, in data set [1], the plant injury at 140 g/ha worked out at 0%. Also, the pest or weed control at 140 g/ha in data set [2] was found to be 90%. In data set [3], the pest or weed control at 140 g/ha was 55%. The pest or weed control at 140 g/ha in data set [4] came out at 100%. In addition, the pest or weed control at 140 g/ha in data set [5] was found to be 50%.
`COC(=O)c1nc(Cl)c(F)c(N)c1/C=C/Cl` [Compound 8, (E)-methyl 4-amino-6-chloro-3-(2-chlorovinyl)-5-fluoropicolinate]: the melting point fell in the range of 128 to 130 °C. Moreover, the plant injury at 140 g/ha in data set [1] came to 0%. In addition, in data set [2], the pest or weed control at 140 g/ha was 90%. Besides, the pest or weed control at 140 g/ha in data set [3] was 70%. In data set [4], the pest or weed control at 140 g/ha came out at 90%. Moreover, the pest or weed control at 140 g/ha in data set [5] is 60%.
Compound `C=Cc1c(C(=O)O)nc(Cl)c(F)c1N` [Compound 9, 4-amino-6-chloro-5-fluoro-3-vinylpicolinic acid] gave a melting point of 164 to 166 °C. For the same compound, in data set [1], the plant injury at 140 g/ha was determined as 50%. Moreover, the pest or weed control at 140 g/ha in data set [2] came to 100%. For the same compound, in data set [3], the pest or weed control at 140 g/ha was found to be 100%. Moreover, in data set [4], the pest or weed control at 140 g/ha is 100%.
Turning to `C=Cc1c(C(=O)O)nc(Cl)c(Cl)c1N` [Compound 10, 4-amino-5,6-dichloro-3-vinylpicolinic acid], the melting point is 190 to 193 °C (dec.). The plant injury at 280 g/ha in data set [1] is 20%. Moreover, the pest or weed control at 280 g/ha in data set [2] is 100%. In addition, in data set [3], the pest or weed control at 280 g/ha worked out at 100%. For the same compound, the pest or weed control at 280 g/ha in data set [4] was 100%.
Take `C=Cc1c(N)cc(Cl)nc1C(=O)O` [Compound 11, 4-amino-6-chloro-3-vinylpicolinic acid]: the melting point is 146 to 148 °C. Besides, the plant injury at 280 g/ha in data set [1] was determined as 50%. Further, the pest or weed control at 280 g/ha in data set [3] amounted to 10%. Further, the pest or weed control at 280 g/ha in data set [4] came to 100%.
`C/C=C\c1c(C(=O)O)nc(Cl)c(F)c1N` [Compound 12, (Z)-4-amino-6-chloro-5-fluoro-3-(prop-1-en-l-yl)picolinic acid] came in with a melting point of 141 to 143 °C. The plant injury at 140 g/ha in data set [1] was found to be 10%. In data set [2], the pest or weed control at 140 g/ha is 100%. Moreover, in data set [3], the pest or weed control at 140 g/ha stood at 80%. The pest or weed control at 140 g/ha in data set [4] is 100%. Further, the pest or weed control at 140 g/ha in data set [5] worked out at 85%.
In turn, `C/C=C/c1c(C(=O)O)nc(Cl)c(F)c1N` [Compound 13, (E)-4-amino-6-chloro-5-fluoro-3-(prop-1-en-l-yl)picolinic acid] yielded a melting point of 153 to 155 °C. The plant injury at 140 g/ha in data set [1] was found to be 30%. The pest or weed control at 140 g/ha in data set [2] was determined as 60%. Moreover, the pest or weed control at 140 g/ha in data set [3] is 70%. In data set [4], the pest or weed control at 140 g/ha came to 85%. For the same compound, the pest or weed control at 140 g/ha in data set [5] amounted to 60%.
On to `C=C(F)c1c(C(=O)O)nc(Cl)c(F)c1N` [Compound 14, 4-amino-6-chloro-5-fluoro-3-(1-fluorovinyl)picolinic acid], for which the plant injury at 140 g/ha in data set [1] came out at 0%. Also, the pest or weed control at 140 g/ha in data set [2] came to 50%; in data set [3], 100%; in data set [4], 90%; in data set [5], 90%.
`C[Si](C)(C)/C=C/c1c(C(=O)O)nc(Cl)c(F)c1N` [Compound 15, (E)-4-amino-6-chloro-5-fluoro-3-(2-(trimethylsilyl)vinyl)picolinic acid] returned a melting point of 100 to 105 °C. The plant injury at 140 g/ha in data set [1] came to 0%. Moreover, the pest or weed control at 140 g/ha in data set [3] is 65%. Also, in data set [4], the pest or weed control at 140 g/ha was determined as 80%.
In the case of `Nc1c(F)c(Cl)nc(C(=O)O)c1/C=C/Cl` [Compound 16, (E)-4-amino-6-chloro-3-(2-chlorovinyl)-5-fluoropicolinic acid], the melting point lay within 152 to 157 °C. In addition, in data set [1], the plant injury at 140 g/ha is 80%. Moreover, in data set [2], the pest or weed control at 140 g/ha worked out at 90%. In data set [3], the pest or weed control at 140 g/ha was 75%. Further, in data set [4], the pest or weed control at 140 g/ha was 100%. Moreover, the pest or weed control at 140 g/ha in data set [5] came to 10%.

The values are drawn from US8835409B2, “3-alkenyl-6-halo-4-aminopicolinates and their use as herbicides” (Dow AgroSciences, LLC., priority 2011, dated 2014).
